Values quoted from earlier work as cited in patent US20080004440A1, “SCAR TREATMENT USING PROTEIN PHOSPHATASE INHIBITORS” (priority 2006, published 2008).
Where a name gives a salt, the structure may show the parent alone. Read-outs that look alike come from different tables or passages of the source. *1 amine or outer side, *2 acyl side, *3 side chain or, on linkers, in order; H or OH if unused. Where a SMILES comes first, the peptide text is derived from it. Bridges are numbered along the chain shown (N, C = ends). [ ]: non-standard residue; d: D form. Adda = CO[C@@H](Cc1ccccc1)[C@@H](C)/C=C(C)/C=C/[C@H](N[*:1])[C@H](C)C(=O)[*:2]; dAsp(3S-Me) = C[C@H](C(=O)[*:3])[C@@H](N[*:1])C(=O)[*:2]; d(γGlu) = O=C(O)[C@@H](CCC(=O)[*:2])N[*:1]; NMeDha = C=C(NC)C(=O)O

Columns and labels:
PP1 = settings: cited from earlier work
[1] = cited from earlier work
PP2A, PP1, PP2B = settings: cited from earlier work
PP2A = settings: cited from earlier work
PP2B = settings: cited from earlier work

COC[C@@H]([C@H](O)[C@H](O)C(=O)NCC[C@H](C)c1nc(/C=C/C[C@@H]2O[C@]3(C[C@@H](O)[C@@H]2C)O[C@H]([C@H](C[C@H](O)[C@H](C)[C@H](O)[C@H](C)/C=C(C)/C(C)=C/C=C/C(C)=C\C#N)OC)[C@H](OP(=O)(O)O)C3(C)C)co1)N(C)C [Calyculin A]
IC50 (PP1): 2 nM | Cell permeability ([1]; in words): Cell-permeable. Phosphorylated polyketide. PP2A ˜ PP1 >> PP2B | Order of inhibition / selectivity among protein phosphatases (PP2A, PP1, PP2B): Cell-permeable. Phosphorylated polyketide. PP2A ˜ PP1 >> PP2B | IC50 (PP2A): 0.5 to 1 nM

O=C(O)[C@@H]1[C@H](C(=O)O)[C@H]2CC[C@@H]1O2 [Endothall]
Order of inhibition / selectivity among protein phosphatases (PP2A, PP1, PP2B; in words): specific inhibitor of PP2A | IC50 (PP2A): 90 nM

C[C@@](O)(/C=C/[C@H]1CC=CC(=O)O1)[C@@H](C[C@@H](O)\C=C/C=C\C=C\CO)OP(=O)(O)O [Fostriecin]
IC50 (PP1; inhibits PP1 only at higher concentrations): 131000 nM | IC50 (PP2A): 3.2 nM

C=C1C(=O)N[C@H](C)C(=O)N[C@@H](CC(C)C)C(=O)N[C@@H](C(=O)O)[C@H](C)C(=O)N[C@@H](CCCNC(=N)N)C(=O)N[C@@H](/C=C/C(C)=C/[C@H](C)[C@H](Cc2ccccc2)OC)[C@H](C)C(=O)N[C@@H](C(=O)O)CCC(=O)N1C [Microcystin-LR] (R[Adda][d(γGlu)][NMeDha][dA]L[dAsp(3S-Me)]-OH; lactam N-7)
IC50 (PP1): 1.7 nM | Order of inhibition / selectivity among protein phosphatases (PP2A, PP1, PP2B): Cyclic peptide. PP2A ˜ PP1 >> PP2B (IC50 for PP2A = 40 pM | IC50 (PP2A): 0.04 nM

C=C1[C@@H](O)[C@@H]2O[C@]3(CC[C@H](/C=C/[C@@H](C)[C@@H]4CC(C)=C[C@@]5(O[C@H](C[C@@](C)(O)C(=O)O)CC[C@H]5O)O4)O3)CC[C@H]2O[C@@H]1[C@@H](O)C[C@H](C)[C@H]1O[C@@]2(CCCCO2)CC[C@H]1C [Okadaic acid, ammonium salt]
IC50 (PP1): 10 to 15 nM | IC50 (PP2A): 0.1 nM | IC50 (PP2B): 5000 nM

O=P(O)(O)Oc1cccc2ccccc12 [α-Naphthyl acid Phosphate]
Order of inhibition / selectivity among protein phosphatases (PP2A, PP1, PP2B; in words): Broad-spectrum protein phosphatase inhibitor.

Microcystin-LW
Cell permeability [1]: A more cell-permeable analog of Microcystin-LR

Microcystin-RR
Order of inhibition / selectivity among protein phosphatases (PP2A, PP1, PP2B): Cyclic peptide. PP2A ˜ PP1 >> PP2B (IC50 = 1.4 nM | IC50 (PP2A): 1.4 nM

Protein phosphatase 2A inhibitor I1^PP2A: Protein phosphatase 2A inhibitor; potently inhibits all forms of PP2A
Ki (PP2A; all forms of PP2A): ~0.1 nM
